Patent US10052320B2, “Substituted quinoxalines as FGFR kinase inhibitors” (ASTEX THERAPEUTICS LIMITED, priority 2011, dated 2018)
Read-outs that look alike come from different tables or passages of the source.

Legend:
[1] = target: Ba/F3-KDR-transfected cells (Homo sapiens, UniProt P35968); assay: Ba/F3-KDR (minus IL3) cellular proliferation assay, Alamar Blue; assay type: cell-based
Description: Ba/F3-KDR (Minus IL3 or Plus IL3) (Cellular Proliferation Assay)
(§1) In a 384 well plate, 100 nl of compound dilution in DMSO was sprayed before adding 50 μl cell culture medium (phenol red free RPMI-1640, 10% FBS, 2 mM L-Glutamine and 50 μg/ml Gentamycin) containing 20000 cells per well of Ba/F3-KDR-transfected cells. Cells were put in an incubator at 37° C. and 5% CO2. After 24 hours, 10 μl of Alamar Blue solution (0.5 mM K3Fe(CN)6, 0.5 mM KaFe(CN)6, 0.15 mM Resazurin and 100 mM Phosphate Buffer) was added to the wells, incubated for 4 hours at 37° C. and 5% CO2 before RFU's (Relative Fluorescence Units) (ex. 540 nm., em. 590 nm.) were measured in a flurorescence plate reader.
(§2) As a counterscreen the same experiment was performed in the presence of 10 ng/ml murine IL3.
as §1, with “a 96” for “a 384”, “plate, 180” for “plate, 100 nl of compound dilution in DMSO was sprayed before adding 50”, “containing 10000” for “containing 20000”, “Ba/F3-KDR-transfected cells were pipette and 20 μl of compound dilution in DMSO was added.” for “Ba/F3-KDR-transfected cells.”, “hours, 40” for “hours, 10”, “CO2” for “CO2 before”

[2] = tested on: Ba/F3-Flt3-transfected cells in the presence of 10 ng/ml murine IL3; assay: Ba/F3-Flt3 (plus IL3) cellular proliferation counterscreen, Alamar Blue; assay type: cell-based; details: Mus musculus, read-out: BAF3-FLT3 (PLUS IL3) 96 well pIC50 (converted)
KDR (h) (VEGFR2) = KDR (h) (VEGFR2) (Homo sapiens, UniProt P35968); assay: KDR (VEGFR2) (enzymatic assay), TR-FRET; assay type: biochemical
Chain of KDR (h) (VEGFR2) (P35968 20-1356): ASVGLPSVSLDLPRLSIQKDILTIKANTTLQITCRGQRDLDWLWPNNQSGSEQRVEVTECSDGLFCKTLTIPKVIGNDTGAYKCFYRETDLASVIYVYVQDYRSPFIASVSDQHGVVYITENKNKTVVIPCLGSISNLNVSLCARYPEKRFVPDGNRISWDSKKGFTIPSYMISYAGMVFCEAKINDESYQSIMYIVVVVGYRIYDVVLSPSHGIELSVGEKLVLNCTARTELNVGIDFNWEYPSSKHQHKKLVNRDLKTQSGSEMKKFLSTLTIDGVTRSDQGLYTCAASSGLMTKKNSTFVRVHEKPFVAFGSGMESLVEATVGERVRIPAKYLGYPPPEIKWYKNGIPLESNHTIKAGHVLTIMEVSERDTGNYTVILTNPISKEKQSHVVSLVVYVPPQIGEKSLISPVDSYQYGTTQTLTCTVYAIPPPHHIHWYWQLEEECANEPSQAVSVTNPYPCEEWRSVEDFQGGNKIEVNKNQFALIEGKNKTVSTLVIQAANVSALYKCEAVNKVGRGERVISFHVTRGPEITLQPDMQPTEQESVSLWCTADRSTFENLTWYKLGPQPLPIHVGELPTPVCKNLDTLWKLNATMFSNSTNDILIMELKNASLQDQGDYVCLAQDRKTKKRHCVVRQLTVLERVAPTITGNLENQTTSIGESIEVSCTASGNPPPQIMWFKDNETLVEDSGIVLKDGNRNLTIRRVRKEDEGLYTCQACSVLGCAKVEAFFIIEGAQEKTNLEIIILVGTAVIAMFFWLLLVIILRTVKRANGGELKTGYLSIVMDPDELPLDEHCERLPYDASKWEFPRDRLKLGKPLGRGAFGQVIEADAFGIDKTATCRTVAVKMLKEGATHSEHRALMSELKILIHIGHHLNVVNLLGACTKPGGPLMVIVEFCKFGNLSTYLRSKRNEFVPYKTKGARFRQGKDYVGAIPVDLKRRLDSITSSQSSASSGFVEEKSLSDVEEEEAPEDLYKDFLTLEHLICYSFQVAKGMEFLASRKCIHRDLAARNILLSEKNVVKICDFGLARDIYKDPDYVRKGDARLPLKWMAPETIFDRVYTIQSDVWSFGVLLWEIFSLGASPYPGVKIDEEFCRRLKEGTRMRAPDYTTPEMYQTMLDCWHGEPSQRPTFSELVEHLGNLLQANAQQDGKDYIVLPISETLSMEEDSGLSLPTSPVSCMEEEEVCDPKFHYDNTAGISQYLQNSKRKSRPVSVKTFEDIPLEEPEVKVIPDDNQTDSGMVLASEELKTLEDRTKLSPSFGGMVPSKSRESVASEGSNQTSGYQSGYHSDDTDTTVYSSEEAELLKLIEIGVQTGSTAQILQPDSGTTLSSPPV
Description: KDR (VEGFR2) (Enzymatic Assay)
In a final reaction volume of 30 μL, KDR (h) (150 ng/ml) was incubated with 50 mM HEPES pH 7.5, 6 mM MnCl2, 1 mM DTT, 0.1 mM Na3VO4, 0.01% Triton-X-100, 500 nM Btn-Flt3 and 3 μM ATP in the presence of compound (1% DMSO final). After incubation for 120 minutes at room temperature the reaction was stopped with 2.27 nM EU-anti P-Tyr, 7 mM EDTA, 31.25 nM SA-XL-665 and 0.02% BSA which was present for 60 minutes at room temperature. Time-Resolved Fluorescence Resonance Energy Transfer (TR-FRET) signal (ex340 nm. Em 620 nm, em 655 nm) was measured afterwards and results are expressed in RFU (Relative Fluorescence Units).

[3] = target: T1, Ba/F3-Flt3-transfected cells (Homo sapiens, UniProt P36888, cells depend on it, form not given); assay: Ba/F3-Flt3 (minus IL3) cellular proliferation assay, Alamar Blue; assay type: cell-based
T1 sequence (P36888 1-993): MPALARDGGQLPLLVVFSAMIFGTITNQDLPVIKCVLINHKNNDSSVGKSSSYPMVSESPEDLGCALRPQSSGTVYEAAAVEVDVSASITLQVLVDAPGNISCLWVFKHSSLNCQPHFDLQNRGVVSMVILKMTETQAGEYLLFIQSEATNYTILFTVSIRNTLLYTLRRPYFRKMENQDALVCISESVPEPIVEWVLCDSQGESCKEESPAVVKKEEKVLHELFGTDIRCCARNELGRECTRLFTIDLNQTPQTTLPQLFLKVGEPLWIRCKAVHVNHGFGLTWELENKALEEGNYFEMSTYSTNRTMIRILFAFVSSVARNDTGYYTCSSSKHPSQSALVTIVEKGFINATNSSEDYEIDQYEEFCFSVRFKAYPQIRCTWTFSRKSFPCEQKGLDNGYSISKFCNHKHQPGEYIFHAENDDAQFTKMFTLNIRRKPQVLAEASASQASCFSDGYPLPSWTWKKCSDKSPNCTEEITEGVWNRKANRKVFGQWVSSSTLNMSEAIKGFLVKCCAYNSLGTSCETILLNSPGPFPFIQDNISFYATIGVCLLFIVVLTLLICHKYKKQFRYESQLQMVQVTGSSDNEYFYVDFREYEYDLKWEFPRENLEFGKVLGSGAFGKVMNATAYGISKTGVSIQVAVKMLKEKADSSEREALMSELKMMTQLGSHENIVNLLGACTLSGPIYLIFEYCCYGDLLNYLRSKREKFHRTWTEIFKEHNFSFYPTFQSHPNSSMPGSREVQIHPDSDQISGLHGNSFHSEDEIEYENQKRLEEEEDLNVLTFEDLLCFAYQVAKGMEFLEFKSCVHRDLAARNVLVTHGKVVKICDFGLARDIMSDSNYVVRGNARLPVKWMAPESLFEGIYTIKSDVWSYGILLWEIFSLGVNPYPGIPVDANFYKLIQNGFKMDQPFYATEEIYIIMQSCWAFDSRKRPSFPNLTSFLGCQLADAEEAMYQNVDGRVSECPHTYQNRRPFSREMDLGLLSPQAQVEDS
Description: (§3) Ba/F3-Flt3 (Minus IL3 or Plus IL3) (Cellular Proliferation Assay)
Cells were put in an incubator at 37° C. and 5% CO2. After 24 hours, 10 μl of Alamar Blue solution (0.5 mM K3Fe(CN)6, 0.5 mM KaFe(CN)6, 0.15 mM Resazurin and 100 mM Phosphate Buffer) was added to the wells, incubated for 4 hours at 37° C. and 5% CO2 before RFU's (Relative Fluorescence Units) (ex. 540 nm., em. 590 nm.) were measured in a flurorescence plate reader. […]
as §1, with “a 96” for “a 384”, “plate, 180” for “plate, 100 nl of compound dilution in DMSO was sprayed before adding 50”, “containing 10000” for “containing 20000”, “of Ba/F3-Flt3-transfected cells were pipette and 20 μl of compound dilution in DMSO was added.” for “of Ba/F3-KDR-transfected cells.”, “hours, 40” for “hours, 10”

[4] = tested on: Ba/F3-Flt3-transfected cells in the presence of 10 ng/ml murine IL3; assay: Ba/F3-Flt3 (plus IL3) cellular proliferation counterscreen, Alamar Blue; assay type: cell-based; details: Mus musculus; plus 10 ng/ml murine IL3; read-out: BAF3-FLT3 (PLUS IL3) 384 well pIC50 (converted)
Description: as §3
as §1, with “Ba/F3-Flt3-transfected” for “Ba/F3-KDR-transfected”
as §2
as §1, with “a 96” for “a 384”, “plate, 180” for “plate, 100 nl of compound dilution in DMSO was sprayed before adding 50”, “containing 10000” for “containing 20000”, “of Ba/F3-Flt3-transfected cells were pipette and 20 μl of compound dilution in DMSO was added.” for “of Ba/F3-KDR-transfected cells.”, “hours, 40” for “hours, 10”

[5] = tested on: Ba/F3-FGFR1-transfected cells in the presence of 10 ng/ml murine IL3; assay: Ba/F3-FGFR1 (plus IL3) cellular proliferation counterscreen, Alamar Blue; assay type: cell-based; details: Mus musculus; plus IL3, 384 well; read-out: BAF3-FGFR 1 (PLUS IL3) 384 well pIC50 (converted)
Description: Ba/F3-FGFR1 (Minus IL3 or Plus IL3) (Cellular Proliferation Assay)
as §1, with “Ba/F3-FGFR1-transfected” for “Ba/F3-KDR-transfected”
as §2
as §1, with “a 96” for “a 384”, “plate, 180” for “plate, 100 nl of compound dilution in DMSO was sprayed before adding 50”, “containing 10000” for “containing 20000”, “of Ba/F3-FGFR1-transfected cells were pipette and 20 μl of compound dilution in DMSO was added.” for “of Ba/F3-KDR-transfected cells.”, “hours, 40” for “hours, 10”

Chain of Ba/F3-KDR-transfected cells (P35968 whole entry, change not shown): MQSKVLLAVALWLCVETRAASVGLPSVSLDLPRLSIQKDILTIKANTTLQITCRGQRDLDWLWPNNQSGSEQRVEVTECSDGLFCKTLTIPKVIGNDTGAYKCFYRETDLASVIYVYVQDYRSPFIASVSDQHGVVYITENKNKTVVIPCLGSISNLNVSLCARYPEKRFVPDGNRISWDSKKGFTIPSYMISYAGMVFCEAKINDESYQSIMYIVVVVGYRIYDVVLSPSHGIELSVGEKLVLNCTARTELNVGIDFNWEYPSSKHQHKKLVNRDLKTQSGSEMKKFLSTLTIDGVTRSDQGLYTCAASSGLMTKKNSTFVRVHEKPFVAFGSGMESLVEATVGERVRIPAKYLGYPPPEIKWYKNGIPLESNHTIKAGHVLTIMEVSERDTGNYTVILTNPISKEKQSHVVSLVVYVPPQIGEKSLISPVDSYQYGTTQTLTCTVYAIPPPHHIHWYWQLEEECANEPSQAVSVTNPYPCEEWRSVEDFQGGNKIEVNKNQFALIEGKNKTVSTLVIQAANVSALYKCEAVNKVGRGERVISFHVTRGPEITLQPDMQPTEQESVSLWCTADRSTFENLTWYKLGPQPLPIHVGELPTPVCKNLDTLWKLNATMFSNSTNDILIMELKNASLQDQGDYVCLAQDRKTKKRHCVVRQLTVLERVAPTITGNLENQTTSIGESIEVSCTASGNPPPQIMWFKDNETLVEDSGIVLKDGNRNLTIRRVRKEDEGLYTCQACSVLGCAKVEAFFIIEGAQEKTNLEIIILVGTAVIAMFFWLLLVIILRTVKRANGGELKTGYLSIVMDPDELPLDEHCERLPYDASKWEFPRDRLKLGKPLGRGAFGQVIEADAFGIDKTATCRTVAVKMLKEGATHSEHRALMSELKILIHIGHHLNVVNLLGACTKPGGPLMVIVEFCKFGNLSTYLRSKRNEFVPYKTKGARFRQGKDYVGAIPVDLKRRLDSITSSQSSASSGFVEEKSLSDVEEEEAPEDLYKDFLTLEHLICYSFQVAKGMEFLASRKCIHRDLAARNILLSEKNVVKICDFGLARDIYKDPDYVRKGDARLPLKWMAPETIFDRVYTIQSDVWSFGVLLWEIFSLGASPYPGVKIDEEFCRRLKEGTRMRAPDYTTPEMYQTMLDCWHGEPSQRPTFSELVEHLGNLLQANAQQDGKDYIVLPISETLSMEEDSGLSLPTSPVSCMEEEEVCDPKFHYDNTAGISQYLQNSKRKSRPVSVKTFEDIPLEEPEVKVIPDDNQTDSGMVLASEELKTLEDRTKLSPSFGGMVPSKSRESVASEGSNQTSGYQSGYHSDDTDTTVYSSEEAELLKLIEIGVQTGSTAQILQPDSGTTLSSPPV

Row | melting point | BAF3-KDR (MIN IL3) 384 well pIC50 ([1]; minus IL3, 384 well) | IC50 (KDR (h) (VEGFR2)) | BAF3-FLT3 (MIN IL3) 96 well pIC50 ([3]; minus IL3, 96 well) | BAF3-FLT3 (MIN IL3) 384 well pIC50 ([3]; minus IL3, 384 well) | BAF3-KDR (MIN IL3) 96 well pIC50 ([1]; minus IL3) | BAF3-KDR (MIN IL3) 384 well pIC50 ([1]; minus IL3) | BAF3-FLT3 (MIN IL3) 96 well pIC50 ([3]; minus IL3) | BAF3-FLT3 (MIN IL3) 384 well pIC50 ([3]; minus IL3) | SMILES | IC50 ([2]; plus IL3, 96 well) | IC50 ([2]; plus 10 ng/ml murine IL3) | IC50 [4] | IC50 [5]
1 | 105 °C | <5 | 1.91 µM | <5 | <5 |  |  |  |  | COc1cc(OC)cc(N(CC2CC2)c2ccc3ncc(-c4ccncc4)nc3c2)c1 [Compound 89] | > 10 µM |  |  | 
2 | 116 °C | <5 | > 10 µM | <5 | <5 |  |  |  |  | COc1cc(OC)cc(N(CC2CC2)c2ccc3ncc(-c4ccc(OC)nc4)nc3c2)c1 [Compound 91] | > 10 µM |  |  | 
3 | 185 °C |  | 2.14 µM |  |  | <5 | <5 | <5 | <5 | COc1cc(OC)cc(N(CC2CC2)c2ccc3ncc(-c4ccc(N)nc4)nc3c2)c1 [Compound 94] |  | > 10 µM |  | 
4 | 84 °C |  | > 1 µM |  |  |  | <5 |  | <5 | COc1cc(OC)cc(N(CC2CC2)c2ccc3ncc(-c4ccccc4)nc3c2)c1 [Compound 119] |  |  |  | 
5 |  |  | > 1 µM |  |  |  | <5 |  |  | COc1cc(OC)cc(N(CCCO)c2ccc3ncc(-c4cnc(OC)nc4)nc3c2)c1 [Compound 141] |  |  | > 10 µM | > 10 µM
